These results are taken from patent US7541457B2, “Amphiphilic trisulfonated porphyrazines for photodynamic applications in medicine” (Universite de Sherbrooke, priority 2003, dated 2009).

Series [1] concerns Vascular Endothelial Growth Factor evoked plasma extravasation. The series is described as follows: PDT of VEGF-165 evoked plasma extravasation (Evans Blue) in rat retina. Type of series: in vivo, Wistar rats. As for the experimental part: (§1) The long established Evans Blue technique was used to measure plasma extravasation. Under anesthesia with a 10 mg/kg mixture of Ketamine and Xylazine, 250 g male wistar rats were injected with 45 mg/kg Evans Blue through a canula placed in the jugular vein. Ten minutes later, the experimental procedure was started. At the end of experiments, the animals were sacrificed and their eyes were enucleated. Both eyes combined were placed into 300 μl of formamide and incubated at 70° C. for 18 hours. Following incubation the supernatant absorbance at 620 nm was read with a spectrophotometer. A standard curve was used to determine the concentration of Evans Blue, which was expressed in μg/ml.
Rats anesthetized with a mixture of Ketamine and Zylazine (10 mg/kg) were injected with 2 μl of VEGF-165 prepared in saline, directly into the vitreous, using a Hamilton micro syringe. A period of 10 min was allotted for the plasma extravasation response to occur. After the response to VEGF-165 developed, the eyes were enucleated and subjected to spectrophotometric analysis for Evan's Blue.
[…] […] Subsequently the eyes were enucleated and tested for Evan's Blue levels.

Series [2] deals with plasma extravasation in STZ-diabetic rat retinal vessels. The experiment in a line: PDT of plasma extravasation (Evans Blue) in STZ-diabetic rat retina. Particulars: for Inhibition of plasma extravasation: 0.5 μmole/kg. Type of series: in vivo, Wistar rats. As for the experimental part:
as §1
After an overnight fast, diabetes was induced with a single 65 mg/kg intraperitoneal injection of streptozotocin (STZ) in 10 mM citrate buffer, pH 4.5. Animals that served as non diabetic controls received an equivalent amount of citrate buffer alone. One week later, just prior to experimentation, blood glucose levels were measured to determine diabetic status. Only rats with blood glucose higher than 20 mM were deemed STZ-diabetic.
Conscious rats were injected with the photosensitizing drug through the tail vein six hours prior to irradiation with red light onto the retina. […] Subsequently the eyes were enucleated and tested for Evan's Blue levels.

Series [3] relates to EMT-6 mammary tumours. The experiment in a line: PDT of EMT-6 mammary tumors in BALB/c mice. Type of series: in vivo. The note with it: for Necrosis (flat and necrotic tissue within 2 days post-PDT): light 24 h later, 670 nm, 400 J/cm^2.
Series [4] has as its system EMT-6 mammary tumours. The series is described as follows: PDT of EMT-6 mammary tumors in BALB/c mice. The format is in vivo. As for the experimental part:
All experiments were performed on male BALB/c mice (18-22g) (Charles River Breeding Laboratories, Montreal, Quebec, Canada) bearing two EMT-6 mammary tumours. The experiments were conducted following a protocol approved by the Canadian Council on Animal Care and the in-house ethics committee. Animals were allowed free access to water and food throughout the experiments. Before tumour implantation, hair on the hind legs and the backs of the mice was removed by shaving and chemical depilating (Nair, Whitehall, Mississauga, Canada). The two tumors were implanted on the backs of the animals by intradermal injection of 2-3×10^5 EMT-6 cells suspended in 0.05 ml Waymouth's growth medium.
For PDT tumor response studies, mice were used 7-10 d after tumor cell inoculation (mean external tumor size 4.5-6.0 mm diameter and approximately 2.5 mm thickness). The mice were given an intravenous administration of […] of porphyrazine dye in PBS (0.2 mL/20 g) through the tail vein. […] Mice were examined daily for 20 days following PDT in order to assess tumor response (necrosis) and recurrence.
At the highest dye dose over 50% of the animals responded with complete tumor regression as observed 3 weeks after treatment.

The test system of series [5] is EMT-6 murine mammary tumor cells. The series is described as follows: Phototoxicity (cellular photoinactivation, MTT) against EMT-6 tumor cells in vitro. The note with it: for LD90 (light dose for 90% cell kill): dye 1 μM, red light 660-700 nm. Type of series: cell-based.

“Zinc tri-(4-sulfobenzo)-5-mono-[(1-hexynyl)naphtho]-porphyrazine [Compound 46]”: the “Inhibition of plasma extravasation” value in series [1] (VEGF-165 injected rats, 0.5 μmole/kg, red light 680 nm, 25 mW/cm^2, 20 J/cm^2) is on record as “completely inhibited plasma extravasation to control levels”; in series [2] (light 6 h after drug, 45 J/cm2, total fluence 3 J), “completely inhibited plasma extravasation”; in series [2] (diabetic rats, red light 680 nm, 25 mW/cm^2, 20 J/cm^2), “completely inhibited plasma extravasation to control levels”. The “Plasma extravasation after PDT” value in series [1] (VEGF-165 treated STZ-diabetic rats, 5 hour interval between photosensitizer administration and light) is “reach control levels”; in series [2] (STZ-diabetic rats, interval drug to light extended from 1 hour up to 6 hours) it was “reduced plasma extravasation to the level of control non-diabetic rats”. Also, the “Relative potency as inhibitor of plasma extravasation” value in series [2] (among the five molecules tested, light 6 h after drug) is given as “most potent inhibitor of plasma extravasation”. The entries for the “Cure (absence of a palpable tumor 3 weeks post-PDT)” value in the series with EMT-6 mammary tumours [3] (dye dose 0.5 μmole/kg) and with EMT-6 mammary tumours [3] (dye dose 0.75 μmole/kg) were 0% and 20%, respectively. Moreover, the Mortality with EMT-6 mammary tumours [3] (dye dose 0.5 μmole/kg) is listed as 0%; in the series on EMT-6 mammary tumours [3] (dye dose 0.75 μmole/kg), 0%; with EMT-6 mammary tumours [4] (any of the dye and light doses used), “No mortality occurred”; in the series with EMT-6 mammary tumours [4] (dye dose 1 μmole/kg), 0%. For the same substance, the “Necrosis (flat and necrotic tissue within 2 days post-PDT)” value with EMT-6 mammary tumours [3] (dye dose 0.5 μmole/kg i.v.) is 100%; in the series with EMT-6 mammary tumours [3] (dye dose 0.75 μmole/kg i.v.) it was 100%; with EMT-6 mammary tumours [4] (dye dose 1 μmole/kg i.v., light 24 h later, 670 nm, 400 J/cm^2), 100%. In the series on EMT-6 mammary tumours [4] (all dye doses used, 0.5-1 μmole/kg), the “Tumor response (flattening and necrosis) within 48 h after PDT” value is “All treated tumors responded”. Also, the results for the “LD90 (light dose for 90% cell kill)” value in series [5] (6 h incubation) and in series [5] (24 h incubation) were 4.1 J · cm^−2 and 1.2 J · cm^−2, respectively. Moreover, in series [5] (compounds 45-49, 6 h and 24 h incubation), the “Relative phototoxicity within the alkylyl series” value is listed as “highest phototoxicity”.
With “zinc trisulfophthalocyanine [ZnPcS3, reference compound]”, the “LD90 (light dose for 90% cell kill)” value is reported as 5.9 J · cm^−2 in series [5] (6 h incubation) and 2.2 J · cm^−2 in series [5] (24 h incubation).
